“Also recorded” adds a separate entry of the source.
Legend:
human neutrophils [1] = test: Human neutrophil respiratory burst (luminol-amplified chemiluminescence); format: cell-based; conditions: for IC50: Neutrophil, read-out: pIC50 on C3-induced respiratory burst (converted)
Experimental: (§1) Human peripheral blood neutrophils were isolated from healthy volunteer buffy coats. Initially, the majority of red blood cells were sedimented using 2% w/v dextran sulfate in a 0.9% NaCl solution for 15 min. Next, the upper phase was centrifuged for 10 min at 200g and the supernatant was discarded. The pellet was resuspended in 0.9% NaCl solution, and neutrophils were separated from here using Lymphoprep (STEMCELL Technologies #07851) and density-gradient centrifugation (400g for 30 min). Then, the remaining red blood cells were subjected to hypotonic lysis by addition of 10 mL of sterile water followed by addition of 10 mL of 1.8% NaCl solution. Cell count and viability were determined using trypan blue and a Countess cell counter. Isolated neutrophils were characterized by May–Grunwald–Giemsa staining and immediately used for migration assays or assessment of respiratory burst.
Human neutrophil respiratory burst was assessed via luminol-amplified chemiluminescence. Freshly isolated human neutrophils were seeded in a concentration of 100,000 cells/well in a flat bottom, white 96-well plate (PerkinElmer cat #6005680). Cells were pre-incubated for 30 min with test compounds or vehicles (DMSO) in HBSS in a humidified atmosphere at 37 °C and 5% CO2. Next, luminol (Merck cat #521-31-3) was added to a final concentration of 10 μM. Lastly, the vehicle or the FFA2 agonist, sodium propionate, was added to a final concentration of 1 mM. Immediately thereafter, chemiluminescence was evaluated with an LUMIstar Omega microplate reader (PerkinElmer) where light emission was recorded for 1 s/well every 60 s for 1 h at 37 °C. Experiments were performed in triplicate and analyzed using GraphPad Prism (version 9). Fold response was calculated as the relative luminescence of samples compared to the vehicle control.

human neutrophils [2] = test: Human neutrophil migration (Transwell); format: cell-based
Experimental: as §1, with “Isolated neutrophils were characterized by May–Grunwald–Giemsa staining and immediately used for migration assays or assessment of respiratory burst.” left out
Freshly isolated human peripheral neutrophils were used in migration assays using the Boyden style Corning HTS Transwell 96 well system with 3 μm pores (Corning #3385). […] Finally, the number of cells that had migrated to the bottom chamber was assessed using the ATPLite Luminescence assay system (PerkinElmer #6016943) according to the manufacturer’s instructions. Luminescence was measured on an LUMIstar Omega microplate reader (PerkinElmer). Experiments were performed in triplicate and analyzed using GraphPad Prism (version 9). Fold response was calculated as the relative migration of samples compared to the vehicle control.

[3] = Pharmacokinetic study in mice; format: in vivo; conditions: male, BALB/cAnC, mouse, plasma
Experimental: The study was performed by Bienta (www.bienta.net). Study design, animal selection, handling, and treatment were all in accordance with the Enamine PK study protocols and Institutional Animal Care and Use Guidelines. Animal treatment and plasma sample preparation were conducted by the Animal Laboratory personnel at Enamine/Bienta. Male BALB/cAnC mice (10–11 weeks old, body weight: 16.0–21.7 g and average body weight across all groups: 19.1 g, SD = 1.2 g) were used in this study. The animals were randomly assigned to the treatment groups before the pharmacokinetic study; all animals were fasted for 4 h before dosing. Intravenous (IV) and peroral (PO) routes of administration were done according to the following; eight time points for each route (3, 7, 15, 30, 60, 120, 240, and 480 min) for the IV route and (5, 10, 15, 30, 60, 120, 240, and 480 min) for the PO route were set for this pharmacokinetic study. Each of the time point treatment group included three animals. There was also one control animal. Compound 16l in the vehicle (DMSO–Cremophor EL–water w/5% mannitol, 1:1:8) was dosed at 10 mg/kg po and 5 mg/kg iv. Dosing volumes of compounds or vehicle were 5 mL/kg. Mice were injected iv with 2,2,2-tribromoethanol at a dose of 150 mg/kg prior to drawing the blood. Blood collection was performed from the orbital sinus in microtainers containing K3EDTA. Animals were sacrificed by cervical dislocation after the blood sample collection. Blood samples were centrifuged for 10 min at 3000 rpm. Before analysis, plasma samples (40 μL) were added 200 μL of a solution with transilast as the internal standard (200 ng/mL in water–methanol mixture 1:9, v/v). After mixing by pipetting and centrifuging for 4 min at 6000 rpm, 0.5 μL of each supernatant was analyzed by HPLC-MS/MS on an API 3000 PE instrument.

| SMILES | IC50 (human neutrophils [1]; propionate (C3) 1 mM) | effect on neutrophil migration induced by fMLP (human neutrophils [2]; fMLP-induced) | inhibition of propionate-induced neutrophil migration (human neutrophils [2]; propionate (C3) 1 mM) | AUC(0-inf) ([3]; iv admin 5 mg/kg) | Vd ([3]; iv admin 5 mg/kg) | half-life ([3]; iv admin 5 mg/kg) | clearance ([3]; iv admin 5 mg/kg, read-out: CLtotal) | bioavailability ([3]; po 10 mg/kg vs iv 5 mg/kg) | AUC(0-inf) ([3]; po admin 10 mg/kg) | Cmax ([3]; po admin 10 mg/kg) | Tmax ([3]; po admin 10 mg/kg) | effect on respiratory burst induced by fMLP (human neutrophils [1]; fMLP-induced) | inhibition of propionate-induced respiratory burst (human neutrophils [1]; propionate (C3) 1 mM) |
| --- | --- | --- | --- | --- | --- | --- | --- | --- | --- | --- | --- | --- | --- |
| O=C(O)C[C@H](Cc1ccc(C(F)(F)F)cc1)NC(=O)Cc1cccc(Cl)c1 [Compound 3, reference compound] | 46.8 nM |  |  |  |  |  |  |  |  |  |  |  |  |
| COc1cccc(CC(=O)N[C@@H](Cc2ccc(C(F)(F)F)cc2)Cc2nnn[nH]2)c1 [Compound 16l, (S)-N-(1-(1H-Tetrazol-5-yl)-3-(4-(trifluoromethyl)phenyl)propan-2-yl)-2-(3-methoxyphenyl)acetamide] | 5.75 nM | did not exhibit any effect | completely inhibit; also recorded: fully inhibit migration; also recorded: complete inhibition | 7350 ng·h/mL | 0.4 L/kg | 24 min | 11 mL/min/kg | 44% | 6480 ng·h/mL | 6240 ng/mL | 30 min | did not exhibit any effect | completely inhibit; also recorded: full inhibition; also recorded: complete inhibition |

Source: article PMC10547238, “Discovery of Potent Tetrazole Free Fatty Acid Receptor 2 Antagonists” (Journal of Medicinal Chemistry, 2023)
